Here are results for 27 compounds from patent US11590139B2, “Substituted aminopurine compounds, compositions thereof, and methods of treatment therewith” (Signal Pharmaceuticals, LLC, priority 2014, dated 2023).

In the first assay the test system is Lox-IMVI melanoma cell line. The assay is described as follows: Lox-IMVI anti-proliferative assay (growth inhibition, Cell Titer-Glo). It is filed as cell-based, human. Particulars: Homo sapiens; IC50 activity level in the cell-based Lox-IMVI anti-proliferative assay; read-out: Activity. Put shortly:
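Cells grown in RPMI + 10% FBS were exposed to compound at 0.5 nM to 10 μM (10-point, 3-fold dilution, duplicate, 0.2% DMSO final) for 72 h at 37 °C, 5% CO2. Viability was read by ATP luminescence at t0 and 72 h. IC50 came from a four-parameter logistic fit normalized to DMSO control.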
Background: ATP-based viability assays read luminescence as a measure of living cells.
As to `NC(=O)[C@H]1CC[C@@H](n2c(Nc3c(F)cc(F)cc3F)nc3cnc(NC4CC(F)(F)C4)nc32)CC1` [Example 226, (1s,4s)-4-(2-(3,3-difluorocyclobutylamino)-8-(2,4,6-trifluorophenylamino)-9H-purin-9-yl)cyclohexanecarboxamide], the IC50 was greater than 1000 nM.

As to `NC(=O)[C@H]1CC[C@@H](n2c(Nc3ccc(Cl)cc3Cl)nc3cnc(NC4CCC(F)(F)CC4)nc32)CC1` [Example 240, (1s,4s)-4-(8-(2,4-dichlorophenylamino)-2-(4,4-difluorocyclohexylamino)-9H-purin-9-yl)cyclohexanecarboxamide], the IC50 is greater than 1000 nM.

For the compound `NC(=O)[C@H]1CC[C@@H](n2c(Nc3c(Cl)cccc3Cl)nc3cnc(N[C@H]4CC[C@H](O)C4)nc32)CC1` [Example 327, (1R,4s)-4-(8-(2,6-dichlorophenylamino)-2-((1S,3S)-3-hydroxycyclopentylamino)-9H-purin-9-yl)cyclohexanecarboxamide], the IC50 fell in the range of 500 to 1000 nM.

In the case of `Cc1c(Cl)ccc(Nc2nc3cnc(NC4CCOCC4)nc3n2[C@H]2CC[C@@H](C(N)=O)CC2)c1F` [Example 102, (1s,4s)-4-(8-(4-chloro-2-fluoro-3-methylphenylamino)-2-(tetrahydro-2H-pyran-4-ylamino)-9H-purin-9-yl)cyclohexanecarboxamide], the IC50 is greater than 1000 nM.

As for `NC(=O)[C@H]1CC[C@@H](n2c(Nc3c(Cl)cc(Cl)cc3Cl)nc3cnc(N[C@@H]4CCC[C@H](O)C4)nc32)CC1` [Example 353, (1S,4s)-4-(2-((1R,3S)-3-hydroxycyclohexylamino)-8-(2,4,6-trichlorophenylamino)-9H-purin-9-yl)cyclohexanecarboxamide], the IC50 was 250 to 500 nM.

Consider `NC(=O)[C@H]1CC[C@@H](n2c(Nc3c(Cl)cc(F)cc3Cl)nc3cnc(N[C@H]4CCCOC4)nc32)CC1` [Example 202, (1R,4s)-4-(8-(2,6-dichloro-4-fluorophenylamino)-2-((S)-tetrahydro-2H-pyran-3-ylamino)-9H-purin-9-yl)cyclohexanecarboxamide], for which the IC50 is greater than 1000 nM.

In the case of `CC(C)Nc1ncc2nc(Nc3c(F)cc(Cl)cc3Cl)n([C@H]3CC[C@@H](C(N)=O)CC3)c2n1` [Example 99, (1s,4s)-4-(8-(2,4-dichloro-6-fluorophenylamino)-2-(isopropylamino)-9H-purin-9-yl)cyclohexanecarboxamide], the IC50 was 250 to 500 nM.

Consider `NC(=O)[C@H]1CC[C@@H](n2c(Nc3c(Cl)cccc3Cl)nc3cnc(NC4CCC4)nc32)CC1` [Example 51], for which the IC50 lay in the range of 500 to 1000 nM.

As to `CC(C)Nc1ncc2nc(Nc3c(Cl)cc(F)cc3Cl)n([C@H]3CC[C@@H](C(N)=O)CC3)c2n1` [Example 123, (1s,4s)-4-(8-(2,6-dichloro-4-fluorophenylamino)-2-(isopropylamino)-9H-purin-9-yl)cyclohexanecarboxamide], the IC50 lay in the range of 500 to 1000 nM.

The same assay, now with this note: Homo sapiens; Lox-IMVI anti-proliferative assay, IC50 activity level; read-out: Activity.
For `N#Cc1cc(F)c(Nc2nc3cnc(NC4CC(F)(F)C4)nc3n2[C@H]2CC[C@@H](C(N)=O)CC2)c(F)c1` [Example 401, (1s,4s)-4-(8-(4-cyano-2,6-difluorophenylamino)-2-(3,3-difluorocyclobutylamino)-9H-purin-9-yl)cyclohexanecarboxamide], the IC50 is greater than 1000 nM.

With `N#Cc1cc(F)c(Nc2nc3cnc(N[C@H]4CCCC[C@H](O)C4)nc3n2[C@H]2CC[C@@H](C(N)=O)CC2)c(Cl)c1` [Example 448, (1R,4s)-4-(8-(2-chloro-4-cyano-6-fluorophenylamino)-2-((1S,3S)-3-hydroxycycloheptylamino)-9H-purin-9-yl)cyclohexanecarboxamide], the IC50 is greater than 1000 nM.

As for `C[C@]1(C(N)=O)CC[C@@H](n2c(Nc3c(Cl)cc(C(F)(F)F)cc3Cl)nc3cnc(N[C@@H]4CCC[C@H](O)C4)nc32)CC1` [Example 577, (1S,4s)-4-(8-(2,6-dichloro-4-(trifluoromethyl)phenylamino)-2-((1R,3S)-3-hydroxycyclohexylamino)-9H-purin-9-yl)-1-methylcyclohexanecarboxamide], the IC50 is greater than 1000 nM.

In the case of `NC(=O)[C@H]1CC[C@@H](n2c(Nc3c(Cl)cc(F)cc3Cl)nc3cnc(N[C@@H]4CCC[C@@H](O)C4)nc32)CC1` [Example 423, (1S,4s)-4-(8-(2,6-dichloro-4-fluorophenylamino)-2-((1R,3R)-3-hydroxycyclohexylamino)-9H-purin-9-yl)cyclohexanecarboxamide], the IC50 was 500 to 1000 nM.

With `NC(=O)[C@H]1CC[C@@H](n2c(Nc3c(F)cc(Cl)cc3F)nc3cnc(NCC(F)(F)CO)nc32)CC1` [Example 453, (1s,4s)-4-(8-(4-chloro-2,6-difluorophenylamino)-2-(2,2-difluoro-3-hydroxypropylamino)-9H-purin-9-yl)cyclohexanecarboxamide], the IC50 was greater than 1000 nM.

For `COC(=O)N1CCC[C@@H](Nc2ncc3nc(Nc4c(Cl)cc(Cl)cc4Cl)n([C@H]4CC[C@@H](C(N)=O)CC4)c3n2)C1` [Example 409, (R)-methyl 3-(9-((1s,4S)-4-carbamoylcyclohexyl)-8-(2,4,6-trichlorophenylamino)-9H-purin-2-ylamino)piperidine-1-carboxylate], the IC50 lay within 500 to 1000 nM.

For `CC[C@@H](CO)Nc1ncc2nc(Nc3c(Cl)cc(C#N)cc3Cl)n([C@H]3CC[C@@H](C(N)=O)CC3)c2n1` [Example 432, (1R,4s)-4-(8-(2,6-dichloro-4-cyanophenylamino)-2-((S)-1-hydroxybutan-2-ylamino)-9H-purin-9-yl)cyclohexanecarboxamide], the IC50 is 500 to 1000 nM.

For the compound `C[C@]1(C(N)=O)CC[C@@H](n2c(Nc3c(F)cc(F)cc3F)nc3cnc(NC4CC(F)(F)C4)nc32)CC1` [Example 578, (1s,4s)-4-(2-(3,3-difluorocyclobutylamino)-8-(2,4,6-trifluorophenylamino)-9H-purin-9-yl)-1-methylcyclohexanecarboxamide], the IC50 was less than 250 nM.

The same assay, now with this note: Homo sapiens; Lox-IMVI melanoma cell line, anti-proliferative assay; read-out: Activity (IC50 activity level).
Consider `C[C@]1(C(N)=O)CC[C@@H](n2c(Nc3c(Cl)cc(Cl)cc3Cl)nc3cnc(N[C@H]4CCC[C@@H](O)C4)nc32)CC1` [Example 627, (1R,4s)-4-(2-((1S,3R)-3-hydroxycyclohexylamino)-8-(2,4,6-trichlorophenylamino)-9H-purin-9-yl)-1-methylcyclohexanecarboxamide], for which the IC50 was less than 250 nM.

For the compound `CC(C)OC(=O)N1CCC[C@@H](Nc2ncc3nc(Nc4c(F)cc(Cl)cc4F)n([C@H]4CC[C@@H](C(N)=O)CC4)c3n2)C1` [Example 773, (R)-isopropyl 3-(9-((1s,4S)-4-carbamoylcyclohexyl)-8-(4-chloro-2,6-difluorophenylamino)-9H-purin-2-ylamino)piperidine-1-carboxylate], the IC50 lay within 500 to 1000 nM.

Take `N#Cc1cc(Cl)c(Nc2nc3cnc(N[C@@H]4CCCN(Cc5ccccc5)C4)nc3n2[C@H]2CC[C@@H](C(N)=O)CC2)c(Cl)c1` [Example 753, (1S,4s)-4-(2-((R)-1-benzylpiperidin-3-ylamino)-8-(2,6-dichloro-4-cyanophenylamino)-9H-purin-9-yl)cyclohexanecarboxamide]: the IC50 is greater than 1000 nM.

Consider `NC(=O)[C@H]1CC[C@@H](n2c(Nc3c(F)cc(Cl)cc3Cl)nc3cnc(N[C@@H]4CCCN(C(=O)Nc5ccccc5)C4)nc32)CC1` [Example 783, (R)-3-(9-((1s,4S)-4-carbamoylcyclohexyl)-8-(2,4-dichloro-6-fluorophenylamino)-9H-purin-2-ylamino)-N-phenylpiperidine-1-carboxamide], for which the IC50 was greater than 1000 nM.

For the compound `NC(=O)[C@H]1CC[C@@H](n2c(Nc3c(F)cc(Cl)cc3Cl)nc3cnc(NC4CCC(c5ncno5)CC4)nc32)CC1` (stereo partly drawn) [Example 676, (1s,4s)-4-(2-(4-(1,2,4-oxadiazol-5-yl)cyclohexylamino)-8-(2,4-dichloro-6-fluorophenylamino)-9H-purin-9-yl)cyclohexanecarboxamide], the IC50 was greater than 1000 nM.

In the case of `N#Cc1cc(Cl)c(Nc2nc3cnc(N[C@@H]4CCOC[C@H]4F)nc3n2[C@H]2CC[C@@H](C(N)=O)CC2)c(Cl)c1` [Example 762, (1S,4s)-4-(8-(2,6-dichloro-4-cyanophenylamino)-2-((3S,4R)-3-fluorotetrahydro-2H-pyran-4-ylamino)-9H-purin-9-yl)cyclohexanecarboxamide], the IC50 was less than 250 nM.

Regarding `CC(=O)N1CCC[C@@H](Nc2ncc3nc(Nc4c(F)cc(Cl)cc4F)n([C@H]4CC[C@@H](C(N)=O)CC4)c3n2)C1` [Example 713, (1S,4s)-4-(2-((R)-1-acetylpiperidin-3-ylamino)-8-(4-chloro-2,6-difluorophenylamino)-9H-purin-9-yl)cyclohexanecarboxamide], the IC50 is greater than 1000 nM.

For the compound `C[C@]1(C(N)=O)CC[C@@H](n2c(Nc3c(Cl)cc(C#N)cc3Cl)nc3cnc(N[C@H]4CCOC[C@H]4F)nc32)CC1` [Example 761, (1R,4s)-4-(8-(2,6-dichloro-4-cyanophenylamino)-2-((3S,4S)-3-fluorotetrahydro-2H-pyran-4-ylamino)-9H-purin-9-yl)-1-methylcyclohexanecarboxamide], the IC50 was less than 250 nM.

As to `C[C@]1(C(N)=O)CC[C@@H](n2c(Nc3c(F)cc(F)cc3F)nc3cnc(N[C@H]4CCC[C@@H](O)C4)nc32)CC1` [Example 625, (1R,4s)-4-(2-((1S,3R)-3-hydroxycyclohexylamino)-8-(2,4,6-trifluorophenylamino)-9H-purin-9-yl)-1-methylcyclohexanecarboxamide], the IC50 was greater than 1000 nM.

Staying with this assay, now noted: Lox-IMVI anti-proliferative assay, IC50 activity level; read-out: Activity.
As for `N#Cc1cc(F)c(Nc2nc3cnc(N[C@H]4CCCOCC4)nc3n2C2CCC(C(N)=O)CC2)c(F)c1` (stereo partly drawn) [Example 542, (1s,4s)-4-(8-(4-cyano-2,6-difluorophenylamino)-2-(oxepan-4-ylamino)-9H-purin-9-yl)cyclohexanecarboxamide], the IC50 was greater than 1000 nM.
